Laboratory results reported in patent US10982196B2, “Immunotherapy targeting intracellular pathogens” (LIFE SCIENCES RESEARCH PARTNERS VZW, priority 2008, dated 2021).

What was measured:
[1] = system: IDO (indolamine-2,3-dioxygenase); assay type: cell-based, BALB/c; conditions: dendritic cells pre-loaded with SEQ ID NO:5 or 7, 8 h co-culture with CD4+ T cells of mice immunised with SEQ ID NO:6 or 8; example written in present tense
[2] = system: induced nitric oxide synthase; experiment: Reactive nitrogen intermediates in antigen-presenting cells, RT-PCR for transcripts of nitric oxide synthase; assay type: cell-based, C57Bl/6 mice; conditions: dendritic cells co-cultured 6 h with CD4+ T cells and peptide of SEQ ID NO:4; example written in present tense
dendritic cells [3] = experiment: Reactive oxygen intermediates in antigen-presenting cells co-cultured with CD4+ T cells expanded with modified ESAT-6 epitope, Facs (DCFDA); assay type: cell-based, C57Bl/6 mice; conditions: dendritic cells loaded with SEQ ID NO:3, 2 h co-culture with CD4+ T cells expanded with SEQ ID NO:4; example written in present tense
dendritic cells [4] = conditions: dendritic cells loaded with peptide of SEQ ID NO:1, 2 h co-culture with CD4+ T cell line expanded with the peptide; compared with line expanded with SEQ ID NO:1; FIG. 1
Experimental: Adenovirus of serotype 5 (Ad.RR5, E1/E3-deleted) was used in these experiments. Thus, 5 μL of a solution containing 2×10^11 viral particles/ml was administered by the intravenous route to 6 weeks old C57Bl/6 mice. Ten days later, the spleen of such mice was recovered and CD4+ T cells purified by magnetic sorting.
CD4+ T cells obtained from Ad.RR5-immunized mice were cultured in the presence of T lymphocyte-depleted spleen adherent cells used as antigen-presenting cells pre-incubated with either peptide of SEQ ID NO:1 or peptide of SEQ ID NO:2. After two cycles of restimulation, the CD4+ T cell lines were allowed to rest for 10 days. […] The generation of reactive oxygen intermediates (ROI) by dendritic cells was then evaluated after 2 h of co-culture. Dendritic cells were prepared from the spleen of C57Bl/6 mice by sorting on magnetic beads coated with an anti-CD11c specific antibody.
Thus, 10^5 dendritic cells were incubated for 1 h with 10 μM DCFDA, a derivative of fluorescein used as an indicator of ROI generation. […] Fluorescence increases generated by DCFDA oxidation by reactive oxygen intermediates are read in a Facs gated on CD11c(+) cells.

In the case of “CGHCDKHIEQYLK (modified Th2R T-cell epitope; (1)..(4) thioreductase motif) [SEQ ID NO:6]”, the “expression of IDO in dendritic cells” value [1] is reported as “induces a reverse signalling leading to expression of IDO”.
For “CGHCEKKICKMEK (modified T-cell epitope of CSP antigen Plasmodium falciparum; (1)..(4) modified T-cell epitope) [SEQ ID NO:8]”, the “expression of IDO in dendritic cells” value [1] was “induces a reverse signalling leading to expression of IDO”.
For “CGHCFAGIEAAAS (modified ESAT6 T-cell epitope; (1)..(4) thioreductase motif) [SEQ ID NO:4]”, the “production of reactive nitrogen intermediates in antigen-presenting cells” value [2] was “shown to be induced” and the “production of reactive oxygen intermediates in antigen-presenting cells” value (dendritic cells [3]) was “shown to be induced”.
For “CHGCPTLLYVLFEV (modified T-cell epitope of capsid protein adenovirus serotype 5; (1)..(4) thioreductase motif) [SEQ ID NO:2]”, the “ROI produced by dendritic cells” value (dendritic cells [4]) was “significantly more ROI”.
